Laboratory results: paper PMC5632533, “Mechanisms of action and in vivo antibacterial efficacy assessment of five novel hybrid peptides derived from Indolicidin and Ranalexin against Streptococcus pneumoniae” (PeerJ, 2017)

Tests used:
[1] = test system: S. pneumoniae; test: Transmission electron microscopy (TEM) of treated cells; format: cell-based, Streptococcus pneumoniae; conditions: 10^8 CFU/ml in CAMHB; 8 × MIC (125 µg/ml; RN7-IN7 500 µg/ml); 1 h, 37 °C, 5% CO2
Experimental: Bacteria were prepared for TEM according to the guidelines of the Electron Microscopy Unit at the Faculty of Medicine, University of Malaya. S. pneumoniae cultures were grown overnight on Columbia agar with 5% sheep blood and suspended in cationally adjusted Mueller-Hinton broth (CAMHB) at 10^8 CFU/ml. […] Cells in cationally adjusted Mueller-Hinton broth (CAMHB) were used as an untreated control. After an hour of incubation, the pneumococcal cells were centrifuged to discard the medium, washed thrice with 10 mM phosphate buffer saline at pH 7.3 and fixed overnight in 4% (v/v) glutaraldehyde. All samples were washed twice with cacodylate buffer, incubated for 2 h in osmium tetroxide buffer (OsO4 1: 1 cacodylate), washed twice with cacodylate buffer and then incubated overnight in cacodylate buffer. All the samples were washed with distilled water twice and incubated for 10 min with uranyl acetate. After this, all samples were then washed twice with distilled water and dehydrated in an ascending series of ethanol: 35% (10 min), 50% (10 min), 70% (10 min), 95% (15 min), and thrice in 100% ethanol (15 min). After dehydration, samples were incubated with propylene oxide (15 min), propylene oxide 1:1 Epon (1 h), propylene oxide 1:3 Epon (2 h) and finally incubated overnight with Epon. All the samples were embedded in agar 100 resin at 37 °C for 5 hr and maintained at 60 °C until viewing. Reichert Ultramicrotome copper grids 3.05 mm (300 square mesh) (Agar Scientific, Essex, United Kingdom) were used to prepare Ultrathin sections. Ethanol-based uranyl acetate and lead citrate were used to stain the samples for 5 min. Transmission electron microscope (Leo Libra 120) was used to capture the images.

[2] = test system: S. pneumoniae; test: ATP efflux assay; format: cell-based, Streptococcus pneumoniae; conditions: peptides 125 µg/ml (RN7-IN7 500 µg/ml); for ATP released from pneumococcal cells after 3 h / ATP released from pneumococcal cells after 1 h: 1 × 10^7 CFU/ml, luciferin/luciferase, ATP standard curve, mean ± SD, three independent experiments
Experimental: The amount of ATP released from pneumococcal cells incubated with hybrid peptides was measured as described previously, with a slight modification ([Tanida et al., 2006]). The ATP determination kit (Molecular Probes, Eugene, OR, USA) was used to measure the amount of ATP released based on the luciferin/luciferase method according to the manufacturer’s instructions. Briefly, S. pneumoniae were grown overnight on Columbia agar with 5% sheep blood. Bacterial suspensions were spectrophotometrically adjusted to (1 × 10^7 CFU/ml) and incubated with hybrid peptides RN7-IN10, RN7-IN9, RN7-IN8 and RN7-IN6 at 125 µg/ml and with RN7-IN7 at 500 µg/ml. The amount of ATP released form the pneumococcal cells were measured at three time points 1, 2 and 3 h. The samples were then centrifuged at 5,000 rpm for 5 min, and ATP efflux was subsequently estimated using an ATP standard curve. Values were obtained from three independent experiments. Ceftriaxone and erythromycin were used as positive controls.

[3] = test system: Streptococcus pneumoniae; conditions: 30 pneumococcal clinical isolates; earlier study; ref Jindal et al., 2015; cited from earlier work
From the text: Table 1 Sequences and physicochemical properties of the template and hybrid AMPs. | column: MIC^a || One of the advantageous alternatives to today’s antibiotics is antimicrobial peptides (AMPs) ([Deslouches et al., 2013]; [Sánchez-Vásquez et al., 2013]). AMPs are synthesized by almost all living beings as the first line of defense in their immune system against microbial infection. Many aspects favor AMPs over traditional antibiotics: a broad range of antimicrobial activity against pathogenic micro-organisms (including viruses, parasites, bacteria, and fungi), microbial pathogens are less efficient in developing resistance against AMPs, as killing take place in a short contact time and AMPs c ...

Substance: FLGGLIKKWPWWPWRR-NH2 [RN7-IN9, hybrid peptide of ranalexin (residues 1-7) and indolicidin (residues 5-13)]
- TEM: detachment of cell wall from cell membrane [1]: partial disconnection of the cell wall from the cell membrane
- ATP released from pneumococcal cells after 3 h [2]: 22.9 ± 3.22 pM
- MIC, minimum inhibitory concentration [3]: 7.81 to 15.62 µg/mL

Substance: FLGGLIKWWPWRR-NH2 [RN7-IN6, hybrid peptide of ranalexin (residues 1-7) and indolicidin (residues 8-13)]
- TEM: detachment of cell wall from cell membrane [1]: partial disconnection of the cell wall from the cell membrane
- ATP released from pneumococcal cells after 1 h [2]: 14.8 ± 0.35 pM
- ATP released from pneumococcal cells after 3 h [2]: 11.47 ± 0.32 pM
- MIC, minimum inhibitory concentration [3]: 7.81 to 15.62 µg/mL

Substance: FLGGLIKWKWPWWPWRR-NH2 [RN7-IN10, hybrid peptide of ranalexin (residues 1-7) and indolicidin (residues 4-13)]
- ATP released from pneumococcal cells after 1 h [2]: 54.5 ± 4.7 pM
- ATP released from pneumococcal cells after 3 h [2]: 25.42 ± 3.51 pM
- ATP released, Average 1hr ([2]; raw data sheet, mean of 3): 54.4965 pM
- ATP released, Average 2hr ([2]; raw data sheet, mean of 3): 41.9293 pM
- ATP released, Average 3hr ([2]; raw data sheet, mean of 3): 25.4295 pM
- MIC, minimum inhibitory concentration [3]: 7.81 to 15.62 µg/mL

Substance: FLGGLIKWPWWPWRR-NH2 [RN7-IN8, hybrid peptide of ranalexin (residues 1-7) and indolicidin (residues 6-13)]
- TEM: detachment of cell wall from cell membrane [1]: partial disconnection of the cell wall from the cell membrane
- ATP released from pneumococcal cells after 1 h [2]: 39.03 ± 0.2 pM
- ATP released from pneumococcal cells after 3 h [2]: 20.54 ± 1.03 pM
- MIC, minimum inhibitory concentration [3]: 7.81 to 15.62 µg/mL
